# Results: patent US7897773B2, “Urea derivatives of tropane, their preparation and their therapeutic application” (Sanofi-Aventis, priority 2006, dated 2011)
# “And” between values parts separate entries of the source, which are not always exact repeats. Equal entries are not always repeated. Structures can show the parent of a compound that is named as a salt. Where two headings read alike, the source gives them in different places.
# Key:
# [1] = molecular target: T1, 11beta-HSD1 enzyme (Homo sapiens, UniProt P28845); experiment: SPA (Scintillation Proximity Assay) of 11beta-HSD1 inhibition, 384 well format; type: biochemical
# T1 construct: made in house; host or cells: Saccharomyces cerevisiae
# Procedure: The compounds according to the invention were the subject of pharmacological tests for determining their inhibitory activity on the 11beta-HSD1 enzyme which is an enzyme involved in lipid metabolism or glucose metabolism.
# These tests consisted in measuring the in vitro inhibitory activity of the compounds of the invention by virtue of an SPA (Scintillation Proximity Assay) in 384 well format. The recombinant 11beta-HSD1 protein was produced in the yeast S. cerevisiae. The reaction was carried out by incubating the enzyme in the presence of ^3H-cortisone and NADPH, in the absence or in the presence of an increasing concentration of inhibitor. SPA beads coupled to an anti-mouse antibody, pre-incubated with an anti-cortisol antibody, made it possible to measure the amount of cortisol formed during the course of the reaction.
# The inhibitory activity with respect to the 11beta-HSD1 enzyme is given by the concentration which inhibits 50% of the activity of 11beta-HSD1 (IC50).
# [2] = molecular target: T2, 11βHSD1 in the eyes (Homo sapiens, UniProt P28845); conditions: normal volunteers; after seven days of treatment; cited from earlier work
# T2 construct: The functional activity of 11βHSD1 in the eyes has been evaluated by studying the action of carbenoxolone in normal volunteers; host or cells: ocular tissue of human volunteers (in vivo)
# [3] = recombinant 11beta-HSD1 produced in yeast S. cerevisiae, 3H-cortisone and NADPH, read-out: concentration which inhibits 50% of the activity of 11beta-HSD1 (IC50)
# T1 sequence (P28845 whole entry, species assumed): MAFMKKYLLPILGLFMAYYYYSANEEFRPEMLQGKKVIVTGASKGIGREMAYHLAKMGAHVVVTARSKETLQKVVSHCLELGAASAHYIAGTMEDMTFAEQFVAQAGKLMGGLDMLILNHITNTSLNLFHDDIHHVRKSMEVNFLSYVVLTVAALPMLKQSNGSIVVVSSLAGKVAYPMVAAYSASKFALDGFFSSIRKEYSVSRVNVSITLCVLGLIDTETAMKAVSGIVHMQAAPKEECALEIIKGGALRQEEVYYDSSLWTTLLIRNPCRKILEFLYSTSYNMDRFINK
# T2 sequence (P28845 whole entry): as the sequence (P28845 whole entry, species assumed) above
smiles,measurement,setting,value
O=C(N1CCCc2ccccc21)N1C2CCC1CC(c1ccc(F)nc1)C2 (centres unmarked) (as salt: HCl),melting point,,98 to 99 °C
"O=C(N1CCCc2ccccc21)N1C2C=C(c3cccc4[nH]ccc34)CC1CC2 (centres unmarked) [Compound 28, (3,4-dihydro-2H-quinolin-1-yl)-[3-(1H-indol-4-yl)-8-azabicyclo[3.2.1]oct-2-en-8-yl]methanone]",IC50,[1]; [3],190 nM
"O=C(N1CCCc2ccccc21)N1C2CCC1CC(c1cccnc1)C2 (centres unmarked) [Compound 4, 1-[(3-pyridin-3-yl-8-azabicyclo[3.2.1]oct-8-yl)carbonyl]-1,2,3,4-tetrahydroquinoline Hydrochloride]",IC50,[1],19 nM
"O=C(N1CCCc2ccccc21)N1C2CCC1CC(c1cccnc1)C2 (centres unmarked) (as salt: HCl) [Compound 4, 1-[(3-pyridin-3-yl-8-azabicyclo[3.2.1]oct-8-yl)carbonyl]-1,2,3,4-tetrahydroquinoline Hydrochloride]",melting point,,218 to 220 °C and 218 to 222 °C
"O=C(N1CCCc2ccccc21)N1C2C=C(c3cccnc3F)CC1CC2 (centres unmarked) [Compound 13, (3,4-dihydro-2H-quinolin-1-yl)-[3-(2-fluoropyridin-3-yl)-8-azabicyclo[3.2.1]oct-2-en-8-yl]methanone]",IC50,[1],122 nM
CC1(C)[C@@H](OC(=O)CCC(=O)O)CC[C@]2(C)[C@H]3C(=O)C=C4[C@@H]5C[C@@](C)(C(=O)O)CC[C@]5(C)CC[C@@]4(C)[C@]3(C)CC[C@@H]12 [carbenoxolone],IOP is reduced by,[2],18%
"O=C(N1CCCc2ccccc21)N1C2CCC1CC(c1ccccc1)C2 (centres unmarked) [Compound 7, (3,4-dihydro-2H-quinolin-1-yl)-(3-phenyl-8-azabicyclo-[3.2.1]oct-8-yl)methanone]",melting point,,133 to 134 °C
same,IC50,[1]; [3],4 nM
